Laboratory results from patent publication US8304206B2, “Mass spectrometry assays for identifying compounds that activate deacetylases” (Sirtris Pharmaceuticals, Inc., priority 2005, dated 2012).
pEC50: −log10 of the molar value. Where two headings read alike, the source gives them in different places.

Assays:
SIRT1 [1] = target: T1, SIRT1 (Homo sapiens, UniProt Q96EB6); test: DMSO tolerance of SIRT1 mass spectrometry assay; assay type: biochemical
T1 sequence (Q96EB6 1-747): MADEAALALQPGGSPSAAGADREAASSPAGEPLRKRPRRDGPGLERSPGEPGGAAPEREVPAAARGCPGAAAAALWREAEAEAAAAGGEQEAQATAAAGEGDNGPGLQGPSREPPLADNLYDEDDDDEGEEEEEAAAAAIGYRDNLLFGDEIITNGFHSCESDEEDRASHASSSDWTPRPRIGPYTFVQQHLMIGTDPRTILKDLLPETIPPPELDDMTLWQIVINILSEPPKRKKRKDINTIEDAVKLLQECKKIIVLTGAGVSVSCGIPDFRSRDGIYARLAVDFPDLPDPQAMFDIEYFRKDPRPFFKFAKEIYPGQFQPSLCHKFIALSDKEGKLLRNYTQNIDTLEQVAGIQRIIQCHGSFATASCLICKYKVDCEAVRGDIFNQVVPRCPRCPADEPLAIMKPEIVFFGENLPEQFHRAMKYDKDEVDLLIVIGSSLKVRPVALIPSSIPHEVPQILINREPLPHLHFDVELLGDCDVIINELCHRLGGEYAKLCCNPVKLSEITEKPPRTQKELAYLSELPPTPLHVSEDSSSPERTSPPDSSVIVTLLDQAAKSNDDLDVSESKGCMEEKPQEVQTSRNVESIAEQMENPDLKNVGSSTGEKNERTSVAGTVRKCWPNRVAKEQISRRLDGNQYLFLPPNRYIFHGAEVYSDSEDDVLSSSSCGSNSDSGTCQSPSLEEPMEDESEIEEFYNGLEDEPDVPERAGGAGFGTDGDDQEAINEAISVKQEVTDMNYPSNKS
Description: To determine the tolerance of the SIRT1 mass spectrometry assay for DMSO, a rate based experiment was performed at multiple concentrations of DMSO.
Formic acid (10 μL of 10%) was added to all of the wells in column 1 of the 96 well assay plate. Eight concentrations of DMSO (40%, 20%, 10%, 5.0%, 2.5%, 1.25%, 0.625%, and 0.313%) were prepared in buffer containing 50 mM Tris HCl pH 8.0, 137 mM, NaCl, 2.7 mM, KCl, 1 mM MgCl2, 5 mM DTT, and 0.05% BSA.
This DMSO titration was prepared by making a 2000 μL solution of 40% DMSO in 50 mM Tris HCl pH 8.0, 137 mM, NaCl, 2.7 mM, KCl, 1 mM MgCl2, 5 mM DTT, and 0.05%. BSA in well A1 of a Costar 2 mL 96 well Assay Block. Dilution Working Solution (1000 μL; 50 mM Tris HCl pH 8.0, 137 mM, NaCl, 2.7 mM, KCl, 1 mM MgCl2, 5 mM DTT, and 0.05% BSA) was added to wells B1, C1, D1, E1, F1, G1 and H1. 1000 μL of the 40% DMSO in buffer solution was transferred from A1 to […] and the solution was mixed 5 times. This process was repeated with wells in column 1 until well H1 was reached.
Using an 8 channel multi-pipette, 50 μl was transferred from column 1 of the 2 mL 96 well assay block to all columns of a 96 well assay plate.
25 μL of Enzyme Working Solution (40 nM SIRT1, 50 mM Tris HCl pH 8.0, 137 mM, NaCl, 2.7 mM, KCl, 1 mM MgCl2, 5 mM DTT, and 0.05% BSA) was prepared and added to each well of the 96-well round bottom assay plate. […]
At 0, 2, 5, 10, 15, 20, 25, 25, 30, 35, 40, 45, and 60 minutes, the reaction was stopped with 10% formic acid and the conversion of substrate to product was determined by mass spectrometry. The activity of SIRT1 at each concentration of DMSO was monitored by comparing the percent conversion of Acetylated Peptide Substrate to Deacetylated Peptide Product over time. […]
Product formation versus time was plotted for each concentration of DMSO tested. The rate was determined by taking the slope from the linear part of the time course. […]

NCI-H358 cells = test: Cellular ATP Assay (ATPLite 1Step normalized to AlamarBlue viability); assay type: cell-based, human; conditions: compounds that raised intracellular ATP levels, 48 hours, read-out: ED50 ATP ASSAY
Description: Cellular ATP levels are an indirect measurement of cellular metabolic rates and, by extension, mitochondrial function. […] The ATP assay is combined with a cellular viability assay so that cellular ATP levels can be normalized to viable cells. Cellular ATP levels were measured using the ATPLite 1Step Kit (PerkinElmer) and cellular viability was measured using the cell permeable dye, AlamarBlue™.
The Cellular ATP Assay is a multiplexed assay that measures both ATP levels and viability of a given cell sample. This assay is run in a 96-well Assay Plate and data are reported as the [ATP]/viability for each well in the Assay Plate.
The ATPLite 1Step™ Kit is a single-step luminescent cell-based assay for detection of ATP. The kit contains lyophilized substrate mixture, comprised of D-luciferin and the firefly (Photinus pyralis) enzyme luciferase. Additionally, the kit contains a detergent-based reconstitution buffer that induces the lysis of cellular membranes. The luciferase in the assay mixture catalyzes a reaction between the free cellular ATP and D-luciferin to produce bioluminescence according to the schematic reaction outlined below. […]
The AlamarBlue™ Assay is a single-step assay that utilizes a soluble, non-toxic, cell permeable dye that is added to cell growth media. […] The reduced dye product gives a fluorescent signal which can be monitored with a fluorescence plate reader (excitation 545 nm and emission 575 nm). The amount of fluorescence generated in a given well is proportional to the number of viable cells. […]
In this assay NCI-H358 cells (obtained from the American Tissue Culture Collection, ATCC) were seeded in 96 well microplates (10^4 cells/well). […] Cell microplates were incubated with dye for 2 hours under growth conditions, and fluorescence was subsequently measured using a plate reader. […] Luminescence was then measured using a plate reader. The ATP signal for each well, measured by the luminescence scan, was normalized to its corresponding cell viability value, measured by the fluorescence scan, to generate the average ATP level per viable cell unit (ATP/vCell). […]

SIRT1 [2] = target: T1, SIRT1; test: SIRT1 mass spectrometry assay (screening for activation); assay type: biochemical; conditions: for FOLD ACTIVATION MS: activation of SIRT1, mass spectrometry; for pEC50: activation of SIRT1, 0.5 μM peptide substrate (SEQ ID NO: 34), 120 μM NAD+, 10 nM SIRT1, 25 min, read-out: ED50 MS ASSAY

| Structure (SMILES) | FOLD ACTIVATION MS (SIRT1 [2]) | pEC50 (SIRT1 [2]) | also measured |
| --- | --- | --- | --- |
| C[S+](C)[O-] [DMSO] |  |  | decrease of SIRT1 enzyme activity (SIRT1 [1]; 0.625% DMSO): 9.1%; decrease of SIRT1 enzyme activity (SIRT1 [1]; 1.25% DMSO): 21%; decrease of SIRT1 enzyme activity (SIRT1 [1]; 2.5% DMSO): 36% |
| O=C(NNc1c2ccccc2nc2ccccc12)c1cccnc1 [compound 11] |  |  | pEC50 (NCI-H358 cells; Homo sapiens, NCI-H358): > 4.30 |
| Cc1nc(-c2cccc(Nc3nc4ccccc4s3)c2)cs1 [compound 94] | B (Fold Activation<250%) | > 4.30 | pEC50 (NCI-H358 cells; Homo sapiens, NCI-H358): < 3.82 |
| COc1cccc(OC)c1C(=O)Nc1cccc(-c2nc3ccccc3s2)c1 [compound 120] |  |  | pEC50 (NCI-H358 cells): > 4.30 |
| COC(=O)c1ccc(-n2cncn2)c(NC(=O)c2ccc(OC)c(OC)c2)c1 [compound 258] | B (Fold Activation<250%) |  |  |
| COc1cc(C(=O)Nc2cccc(-c3nc4ccccc4[nH]3)n2)cc(OC)c1OC [compound 259] | A (Fold activation>250%) | > 4.30 |  |
| COc1ccc(C(=O)Nc2cccc(-c3nc4ccccc4[nH]3)n2)cc1OC [compound 260] | A (Fold activation>250%) | > 4.30 |  |
| COc1cccc(C(=O)Nc2cccc(-c3nc4ccccc4[nH]3)n2)c1 [compound 261] | A (Fold activation>250%) | > 4.30 |  |
| COc1ccc(C(=O)Nc2ccc(-c3nc4ccccc4[nH]3)cc2)c(OC)c1 [compound 262] | B (Fold Activation<250%) | > 4.30 |  |
| COc1cc(C(=O)Nc2ccc(-c3nc4ccccc4[nH]3)cc2)cc(OC)c1OC [compound 263] | B (Fold Activation<250%) |  |  |
| CN(C)c1cccc(C(=O)Nc2ccc(-c3cc4ccccc4[nH]3)cc2)c1 [compound 264] | B (Fold Activation<250%) | > 4.30 |  |
| COc1ccc(C(=O)Nc2ccccc2-c2cn3ccccc3n2)c(OC)c1 [compound 265] | B (Fold Activation<250%) |  |  |
| COc1ccc(C(=O)Nc2ccccc2-c2cn3ccccc3n2)cc1OC [compound 266] | A (Fold activation>250%) | > 4.30 |  |
| COc1cc(C(=O)Nc2ccccc2-c2cn3ccccc3n2)cc(OC)c1OC [compound 267] | B (Fold Activation<250%) | > 4.30 |  |
| CN(C)c1cccc(C(=O)Nc2ccccc2-c2cn3ccccc3n2)c1 [compound 268] | B (Fold Activation<250%) | > 4.30 |  |
| COc1ccc(C(=O)Nc2ccccc2-c2cn3cc(CN4CCNCC4)sc3n2)cc1OC [compound 270] | A (Fold activation>250%) |  |  |
| COc1cc(C(=O)Nc2ccccc2-c2cn3cc(CN4CCNCC4)sc3n2)cc(OC)c1OC [compound 271] | A (Fold activation>250%) | > 4.30 |  |
| COc1ccc(C(=O)Nc2cccc(-c3nc4cnccc4s3)c2)c(OC)c1 [compound 272] | B (Fold Activation<250%) | > 4.30 |  |
| COc1cc(C(=O)Nc2cccc(-c3nc4cnccc4s3)c2)cc(OC)c1OC [compound 273] | A (Fold activation>250%) |  |  |
| COc1ccc(C(=O)Nc2ncccc2-c2nc3ccccc3[nH]2)cc1OC [compound 276] | B (Fold Activation<250%) | > 4.30 |  |
| CC(=O)Nc1ccc(S(=O)(=O)Nc2cccc(-c3nc4ccncc4s3)c2)cc1 [compound 288] | B (Fold Activation<250%) |  |  |
| COc1ccc(S(=O)(=O)Nc2cccc(-c3nc4ccncc4s3)c2)cc1OC [compound 289] | B (Fold Activation<250%) |  |  |
